Test results from patent US8785457B2 (Cellzome Limited, priority 2009, dated 2014).
Like-named read-outs stand apart in the source and are kept apart here.

Legend:
[1] = target: T1, DNA-dependent protein kinase (DNA-PK) (Homo sapiens, UniProt P78527); experiment: kinobeads assay, DNA-PK; type: binding
T1 construct: endogenous in cells; host or cells: Jurkat, clone E6-1 (ATCC TIB-152) cell lysate
Method in brief: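 IC50 values came from dose-response curves after test compound (1:3 series) competed with an immobilized phenylmorpholin-chromen affinity matrix for kinases in Jurkat lysate at 5 mg/mL protein. Eluted captured DNA-PK and PI3Kδ were measured by specific-antibody dot blot and infrared imaging. Buffer was Tris pH 7.4, NP40, MgCl2, NaCl, vanadate, DTT, NaF.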

[2] = tested on: S6RP serine-240/244 phosphorylation; experiment: In vitro Phospho-S6 cellular assay (pS6RP S240/244) in HEK293T/17 cells; type: cell-based; conditions: Homo sapiens, 2 hours, read-out: pS6 IC50
Method in brief: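 Compounds were tested at eight concentrations on adhered HEK293T/17 cells for 2 h at 37 °C (2% FCS, 0.1% DMSO), at 80,000 cells/well for pAkt S473 and 40,000 for pS6RP S240/244. Lysates were captured on phospho-specific antibody MSD plates with Sulfo-Tag detection. Values came from nonlinear variable-slope regression.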

[3] = kinobeads assay, Table 4, read-out: Inhibition values (IC50) DNA-PK
[4] = kinobeads assay, Table 6, read-out: Inhibition values (IC50) DNAPK
[5] = Further Kinobeads Data, read-out: DNAPK

T1 sequence (P78527 whole entry): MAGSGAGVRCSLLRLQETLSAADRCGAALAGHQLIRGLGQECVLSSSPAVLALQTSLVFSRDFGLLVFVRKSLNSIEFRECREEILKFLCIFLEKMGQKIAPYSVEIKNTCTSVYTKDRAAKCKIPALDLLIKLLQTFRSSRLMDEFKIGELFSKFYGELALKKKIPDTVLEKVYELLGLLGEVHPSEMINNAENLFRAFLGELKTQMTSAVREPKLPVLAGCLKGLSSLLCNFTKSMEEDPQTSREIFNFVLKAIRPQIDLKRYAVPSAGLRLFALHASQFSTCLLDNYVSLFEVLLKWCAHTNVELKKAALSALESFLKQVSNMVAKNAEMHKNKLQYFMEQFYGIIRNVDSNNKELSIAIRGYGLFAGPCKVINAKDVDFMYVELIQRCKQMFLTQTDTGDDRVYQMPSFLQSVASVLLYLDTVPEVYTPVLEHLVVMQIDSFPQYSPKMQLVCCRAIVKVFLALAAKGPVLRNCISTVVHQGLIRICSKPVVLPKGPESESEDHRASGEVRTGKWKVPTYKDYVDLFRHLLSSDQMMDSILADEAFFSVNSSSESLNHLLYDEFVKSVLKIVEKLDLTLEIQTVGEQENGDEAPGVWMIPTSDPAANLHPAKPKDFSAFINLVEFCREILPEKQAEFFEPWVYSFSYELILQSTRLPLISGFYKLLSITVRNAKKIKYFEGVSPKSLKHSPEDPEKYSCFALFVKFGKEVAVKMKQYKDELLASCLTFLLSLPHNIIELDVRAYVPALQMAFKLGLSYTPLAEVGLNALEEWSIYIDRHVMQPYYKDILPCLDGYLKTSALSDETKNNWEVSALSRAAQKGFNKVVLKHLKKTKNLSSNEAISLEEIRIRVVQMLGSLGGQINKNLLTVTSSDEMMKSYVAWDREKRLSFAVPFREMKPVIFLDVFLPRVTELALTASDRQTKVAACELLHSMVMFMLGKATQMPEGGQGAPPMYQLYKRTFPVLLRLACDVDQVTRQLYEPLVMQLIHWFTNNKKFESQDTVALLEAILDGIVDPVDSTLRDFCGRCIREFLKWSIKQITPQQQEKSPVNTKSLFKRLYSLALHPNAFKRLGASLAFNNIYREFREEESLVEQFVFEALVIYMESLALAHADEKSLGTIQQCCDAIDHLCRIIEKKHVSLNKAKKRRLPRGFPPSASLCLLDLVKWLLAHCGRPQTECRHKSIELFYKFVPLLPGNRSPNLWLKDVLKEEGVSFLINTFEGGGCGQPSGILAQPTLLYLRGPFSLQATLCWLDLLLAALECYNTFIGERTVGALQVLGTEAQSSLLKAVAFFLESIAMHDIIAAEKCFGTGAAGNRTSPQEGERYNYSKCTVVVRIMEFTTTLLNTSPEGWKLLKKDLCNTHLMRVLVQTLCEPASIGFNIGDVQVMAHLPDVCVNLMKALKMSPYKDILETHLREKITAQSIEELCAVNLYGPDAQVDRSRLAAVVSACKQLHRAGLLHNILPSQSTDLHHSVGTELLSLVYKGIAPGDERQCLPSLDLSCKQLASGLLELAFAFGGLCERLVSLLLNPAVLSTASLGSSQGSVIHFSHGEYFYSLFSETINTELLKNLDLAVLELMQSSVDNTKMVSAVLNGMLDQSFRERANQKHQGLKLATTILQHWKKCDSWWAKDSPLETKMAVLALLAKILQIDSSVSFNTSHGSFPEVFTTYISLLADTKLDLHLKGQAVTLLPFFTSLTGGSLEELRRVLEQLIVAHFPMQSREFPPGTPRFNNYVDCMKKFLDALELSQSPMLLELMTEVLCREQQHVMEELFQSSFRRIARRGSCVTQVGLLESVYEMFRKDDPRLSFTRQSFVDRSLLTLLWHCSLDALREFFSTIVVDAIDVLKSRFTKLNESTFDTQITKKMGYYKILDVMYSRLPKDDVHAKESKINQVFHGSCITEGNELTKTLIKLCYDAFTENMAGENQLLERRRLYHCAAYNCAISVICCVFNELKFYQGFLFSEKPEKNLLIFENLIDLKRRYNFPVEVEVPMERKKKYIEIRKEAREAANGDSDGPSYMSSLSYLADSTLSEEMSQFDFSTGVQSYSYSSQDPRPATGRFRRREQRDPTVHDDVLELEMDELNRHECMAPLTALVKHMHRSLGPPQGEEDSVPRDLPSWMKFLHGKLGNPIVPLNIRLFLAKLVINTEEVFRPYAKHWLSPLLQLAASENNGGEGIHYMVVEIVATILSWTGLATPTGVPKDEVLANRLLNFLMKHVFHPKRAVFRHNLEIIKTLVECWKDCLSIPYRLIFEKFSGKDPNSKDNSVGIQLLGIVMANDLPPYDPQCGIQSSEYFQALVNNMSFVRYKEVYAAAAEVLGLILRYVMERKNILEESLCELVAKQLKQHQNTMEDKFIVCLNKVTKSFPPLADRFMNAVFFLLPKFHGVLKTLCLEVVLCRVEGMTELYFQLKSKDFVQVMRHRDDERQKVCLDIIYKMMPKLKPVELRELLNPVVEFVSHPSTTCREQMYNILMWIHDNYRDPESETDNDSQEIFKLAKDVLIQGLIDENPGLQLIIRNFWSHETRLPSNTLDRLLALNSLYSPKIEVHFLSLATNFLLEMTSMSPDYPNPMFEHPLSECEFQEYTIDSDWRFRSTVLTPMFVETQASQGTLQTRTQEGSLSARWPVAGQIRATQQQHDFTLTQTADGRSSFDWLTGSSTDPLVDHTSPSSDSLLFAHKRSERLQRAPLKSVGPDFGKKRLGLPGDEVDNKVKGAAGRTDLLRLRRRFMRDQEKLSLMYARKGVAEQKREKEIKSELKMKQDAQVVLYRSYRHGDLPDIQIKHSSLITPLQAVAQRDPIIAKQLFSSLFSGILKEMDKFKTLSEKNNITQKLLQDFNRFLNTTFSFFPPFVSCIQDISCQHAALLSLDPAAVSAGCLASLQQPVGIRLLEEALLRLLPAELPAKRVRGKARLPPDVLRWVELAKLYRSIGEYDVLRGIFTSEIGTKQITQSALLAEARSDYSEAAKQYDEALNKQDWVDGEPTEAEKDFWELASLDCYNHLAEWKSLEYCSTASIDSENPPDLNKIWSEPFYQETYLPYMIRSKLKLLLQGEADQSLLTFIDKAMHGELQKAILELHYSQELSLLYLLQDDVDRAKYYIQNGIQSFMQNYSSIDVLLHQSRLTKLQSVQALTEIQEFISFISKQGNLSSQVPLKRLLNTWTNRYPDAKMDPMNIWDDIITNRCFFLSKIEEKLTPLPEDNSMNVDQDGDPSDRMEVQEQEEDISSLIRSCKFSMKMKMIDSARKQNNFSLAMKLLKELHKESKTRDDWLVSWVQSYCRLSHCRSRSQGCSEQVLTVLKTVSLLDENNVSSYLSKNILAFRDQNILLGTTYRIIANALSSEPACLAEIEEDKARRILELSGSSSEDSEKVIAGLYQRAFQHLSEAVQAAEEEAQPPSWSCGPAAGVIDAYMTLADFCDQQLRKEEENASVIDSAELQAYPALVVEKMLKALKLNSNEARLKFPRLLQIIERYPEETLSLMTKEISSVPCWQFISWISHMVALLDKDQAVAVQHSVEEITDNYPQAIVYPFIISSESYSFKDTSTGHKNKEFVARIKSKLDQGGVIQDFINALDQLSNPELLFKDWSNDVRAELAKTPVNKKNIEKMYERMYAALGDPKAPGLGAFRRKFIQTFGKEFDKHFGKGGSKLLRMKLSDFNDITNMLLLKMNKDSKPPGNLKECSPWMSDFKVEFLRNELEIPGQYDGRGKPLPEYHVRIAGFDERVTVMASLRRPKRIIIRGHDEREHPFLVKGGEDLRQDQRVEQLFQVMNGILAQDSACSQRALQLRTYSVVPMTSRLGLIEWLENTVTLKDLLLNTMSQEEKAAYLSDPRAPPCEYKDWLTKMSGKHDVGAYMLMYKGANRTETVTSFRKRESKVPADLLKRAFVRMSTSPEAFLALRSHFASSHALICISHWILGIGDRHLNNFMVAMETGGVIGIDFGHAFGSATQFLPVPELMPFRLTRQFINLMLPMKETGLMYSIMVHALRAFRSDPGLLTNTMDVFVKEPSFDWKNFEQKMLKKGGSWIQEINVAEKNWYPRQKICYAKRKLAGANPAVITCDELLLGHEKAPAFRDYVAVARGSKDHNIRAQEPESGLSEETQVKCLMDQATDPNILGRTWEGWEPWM

Compound | IC50 [1, 3] [nM] | IC50 [1, 4] [nM] | IC50 [2] [nM] | IC50 [1, 5] [nM]
CCNC(=O)Nc1ccc(-c2nc3c(c(N4CCOCC4)n2)CN(C)C3)c(F)c1 [Example 154, 1-ethyl-3-(3-fluoro-4-(6-methyl-4-morpholino-6,7-dihydro-5H-pyrrolo[3,4-d]pyrimidin-2-yl)phenyl)urea] |  |  | 436 | > 10000
CCNC(=O)Nc1ccc(-c2nc3c(c(N4CCOC[C@@H]4C)n2)CN(C(=O)C(C)(C)C)C3)cc1 [Example 22, (S)-1-ethyl-3-(4-(4-(3-methylmorpholino)-6-pivaloyl-6,7-dihydro-5H-pyrrolo[3,4-d]pyrimidin-2-yl)phenyl)urea] | > 10000 | > 10000 | 87 | 
CC(C)N1Cc2nc(-c3ccc(NC(=O)NCCO)cc3F)nc(N3CCOC[C@@H]3C)c2C1 [Example 187, (S)-1-(3-fluoro-4-(6-isopropyl-4-(3-methylmorpholino)-6,7-dihydro-5H-pyrrolo[3,4-d]pyrimidin-2-yl)phenyl)-3-(2-hydroxyethyl)urea] |  |  | 563 | > 10000
COC(=O)N1Cc2nc(-c3ccc(NC(=O)NC4CC4)cc3F)nc(N3CCOC[C@H]3C)c2C1 [Example 180, (R)-methyl 2-(4-(3-cyclopropylureido)-2-fluorophenyl)-4-(3-methylmorpholino)-5H-pyrrolo[3,4-d]pyrimidine-6(7H)-carboxylate] |  |  | 58 | 1000 to 10000
C[C@H]1COCCN1c1nc(-c2ccc(NC(=O)NC3CC3)cc2F)nc2c1CN(S(C)(=O)=O)C2 [Example 177, (S)-1-cyclopropyl-3-(3-fluoro-4-(4-(3-methylmorpholino)-6-(methylsulfonyl)-6,7-dihydro-5H-pyrrolo[3,4-d]pyrimidin-2-yl)phenyl)urea] |  |  | 410 | > 10000

Other lines, results leading:

IC50 [1, 3] [nM] | IC50 [1, 4] [nM] | IC50 [2] [nM] | IC50 [1, 5] [nM] | Compound
> 10000 | > 10000 | 196 |  | CCNC(=O)Nc1ccc(-c2nc3c(c(N4CCOC[C@@H]4C)n2)CN(C)C3)cc1 [Example 26, (S)-1-ethyl-3-(4-(6-methyl-4-(3-methylmorpholino)-6,7-dihydro-5H-pyrrolo[3,4-d]pyrimidin-2-yl)phenyl)urea]
> 10000 | > 10000 | 379 |  | CCNC(=O)N1Cc2nc(-c3ccc(NC(=O)NC4CC4)cc3)nc(N3CCOC[C@@H]3C)c2C1 [Example 33, (S)-2-(4-(3-cyclopropylureido)phenyl)-N-ethyl-4-(3-methylmorpholino)-5H-pyrrolo[3,4-d]pyrimidine-6(7H)-carboxamide]
> 10000 | > 10000 | 32 |  | CCNC(=O)Nc1ccc(-c2nc3c(c(N4CCOC[C@@H]4C)n2)CCN(C(=O)C2CC2)C3)cc1 [Example 56, (S)-1-(4-(7-(cyclopropanecarbonyl)-4-(3-methylmorpholino)-5,6,7,8-tetrahydropyrido[3,4-d]pyrimidin-2-yl)phenyl)-3-ethylurea]
> 10000 | > 10000 | 839 |  | CCNC(=O)Nc1ccc(-c2nc3c(c(N4CCOC[C@@H]4C)n2)CNCC3)cc1 [Example 12, (S)-1-ethyl-3-(4-(4-(3-methylmorpholino)-5,6,7,8-tetrahydropyrido[4,3-d]pyrimidin-2-yl)phenyl)urea]
